Source: US9023407B2, “Plant extract for treating diabetes and process for making same” (Development Center for Biotechnology, priority 2012, dated 2015)
Marks after values point to notes of the source that are not given here.

Legend:
[1] = system: Sprague-Dawley rats with type I diabetes; assay: Insulin resistance test in rats with type I diabetes; format: in vivo, rat; conditions: 0.3 U/kg insulin subcutaneous
Procedure: Eighteen (18) Sprague-Dawley rats with type I diabetes were divided into three groups: the control group (6 rats, to be administered with 10% Tween 20), the insulin group (6 rats, to be subcutaneously administered with 0.3 U/kg insulin) and the insulin plus HC group (6 rats, to be subcutaneously administered with 0.3 U/kg insulin and orally administered with 1.0 g/kg of ethanol extract of leaves and pseudostems of Hedychium coronarium Koening ). The rats were fasted for 4 hours and then administered with 10% Tween 20 (the control group), 0.3 U/kg insulin (the insulin group) or 0.3 U/kg insulin plus 1.0 g/Kg of ethanol extract of leaves and pseudostems of Hedychium coronarium Koening (the insulin plus HC group). After administration of 2.5 g/kg glucose, blood was drawn from each animal at 30-minute intervals for the measurement of glucose (mg/DL).

[2] = system: Sprague-Dawley rats; assay: Glucose tolerance test in normal rats; format: in vivo, rat; conditions: 10 mg/kg
Procedure: Twenty-six (26) Sprague-Dawley rats were divided into four groups: the placebo group (7 rats, to be administered with 10% Tween 20), the positive control group (7 rats, to be administered with glibenclamide), the 250 mg/kg HC group (6 rats, to be administered with 250 mg/kg ethanol extract of leaves and pseudostems of Hedychium coronarium Koening ), and the 750 mg/kg HC group (6 rats, to be administered with 750 mg/kg ethanol extract of the leaves and pseudostems of Hedychium coronarium Koening ). The rats were fasted for 7 hours and then administered with 250 mg/kg ethanol extract of leaves and pseudostems of Hedychium coronarium Koening (the 250 mg/kg HC group), 750 mg/kg ethanol extract of leaves and pseudostems of Hedychium coronarium Koening (the 750 mg/kg HC group), 10 mg/kg glibenclamide (the positive control group), or 10% Tween 20 (the placebo/control group). After 30 minutes, each rat was administered with glucose at a total amount of 5 g/kg, orally (2.5 g/kg) and subcutaneously (2.5 g/kg). Blood was drawn from each rat at the intervals of 0, 30, 60, 90 and 120 minutes for the measurement of glucose (mg/DL). […]
The test rats and procedure were as those in Example 1. However, in this example, 24 Sprague-Dawley rats were divided into four groups: the placebo group (6 rats, to be administered with water), the positive control group (6 rats, to be administered with 10 mg/kg glibenclamide), the 0.4 g/kg HC group (6 rats, to be administered with 0.4 g/kg water-ethanol extract of leaves and pseudostems of Hedychium coronarium Koening ), and the 0.8 g/kg HC group (6 rats, to be administered with 0.8 g/kg water-ethanol extract of leaves and pseudostems of Hedychium coronarium Koening ). After 30 minutes, each rat was administered with glucose at a total amount of 5 g/kg, orally (2.5 g/kg) and subcutaneously (2.5 g/kg). Blood was drawn from each animal at 30-minute intervals for the measurement of glucose (mg/DL). […]

Row | Compound | Concentration of blood glucose ([1]; 0 min) [mg/dL] | Concentration of blood glucose ([1]; 30 min) | Concentration of blood glucose ([1]; 60 min) | Concentration of blood glucose ([1]; 90 min) | Concentration of blood glucose ([2]; Example 1, 0 min) [mg/dL] | Concentration of blood glucose ([2]; Example 1, 30 min) | Concentration of blood glucose ([2]; Example 1, 60 min) | Concentration of blood glucose ([2]; Example 1, 90 min) | Concentration of blood glucose ([2]; Example 1, 120 min) | Concentration of blood glucose ([2]; Example 9, 0 min) [mg/dL] | Concentration of blood glucose ([2]; Example 9, 30 min) | Concentration of blood glucose ([2]; Example 9, 60 min) | Concentration of blood glucose ([2]; Example 9, 90 min) | Concentration of blood glucose ([2]; Example 9, 120 min)
1 | Insulin: insulin, subcutaneously administered at 0.3 U/kg | 522.5 ± 27.1 | 695.8 +/− 18.7** mg/DL | 593.3 +/− 16.2* mg/DL | 486.2 +/− 9.6* mg/DL | – | – | – | – | – | – | – | – | – | –
2 | COc1ccc(Cl)cc1C(=O)NCCc1ccc(S(=O)(=O)NC(=O)NC2CCCCC2)cc1 [Glibenclamide, glibenclamide] | – | – | – | – | 99 ± 2.7 | 150.7 +/− 15.2** mg/DL | 121.4 +/− 10.2** mg/DL | 101.6 +/− 6.7** mg/DL | 83.4 +/− 2.5*** mg/DL | 94.3 ± 3.8 | 173.8 +/− 14.5*** mg/DL | 101.8 +/− 8.4*** mg/DL | 82.7 +/− 8.1*** mg/DL | 68.8 +/− 5.9*** mg/DL
